Test [1] relates to HCT116 cells. Briefly: HCT116 (MSI) 7 day viability, CellTiter Glo. Format: cell-based. The following applies: 7 days, read-out: HCT116 (MSI) Viability 7 Day Abs AC50. As for the experimental part:
(§1) Compounds were dissolved in DMSO to a concentration of 10 mM. Compounds were then serially diluted in 10 3-fold steps in DMSO using an EVO (Tecan). Plates were then spun down for 1 minute at 1,000 RPM at room temperature.
(§2) The colon carcinoma lines HCT116 (RRID: CVCL_0291) and HT29 (RRID: CVCL_0320) were obtained from ATCC. […] All cells were maintained at 37° C. with 5% CO2 incubator.
(§3) After harvesting, cells were spun down for 5 minutes at 1200 RPM. Cells were resuspended in 10 mL of growth media and counted using Countess (Thermo Fisher). Cell concentrations were adjusted to 50 cells/well for HCT116 and 500 cells/well for HT29. 50 μL of diluted cells were added to compound treated 384 well plates using a 12 channel, 300 uL electronic handheld pipette (Integra). Cell treated plates were placed in 37 C with 5% CO2 incubator for 7 days.
(§4) Afterwards, cells were removed from incubator and equilibrated to room temperature for 15 minutes. 35 uL of CellTiter Glo (Promega #G7573) reagent were added to each well using a 12 channel, 300 uL electronic handheld pipette (Integra). Plates were incubated for 20 minutes at room temperature. Luminescence quantification was performed using Envision (PerkinElmer).
(§5) For data analysis, the assay background signal was determined in wells containing medium, but no cells. Potencies were calculated by linear least squares fit to the four-parameter logistic IC50 equation. The reported IC50 values are the geometrical mean of at least 2 independent replicates.

Test [2] deals with Full length WRN protein (aa 2-1432) (Homo sapiens (Human), UniProt Q14191). Briefly: WRN ATPase ADP-Glo biochemical assay, Assay Format B (100 μM ATP). The note with it: 0.25 nM WRN, 100 nM C6.18 ssDNA, 60 min preincubation, read-out: ATPase ADPGlo AC50 (uM)- Assay Format B.
Test [3] has as its system HT29 cells. Briefly: HT29 (MSS) 7 day viability, CellTiter Glo. Format: cell-based. The note with it: 7 days, read-out: HT29 (MSS) Viability 7 Day CTGAbs AC50. As for the experimental part:
as §1, §2, §3, §4, §5

Molecules are shown by their SMILES. Where two headings read alike, the source gives them in different places. Where only a bound is given, the exact number is not on record here.

Full length WRN protein (aa 2-1432), sequence (Q14191 2-1432): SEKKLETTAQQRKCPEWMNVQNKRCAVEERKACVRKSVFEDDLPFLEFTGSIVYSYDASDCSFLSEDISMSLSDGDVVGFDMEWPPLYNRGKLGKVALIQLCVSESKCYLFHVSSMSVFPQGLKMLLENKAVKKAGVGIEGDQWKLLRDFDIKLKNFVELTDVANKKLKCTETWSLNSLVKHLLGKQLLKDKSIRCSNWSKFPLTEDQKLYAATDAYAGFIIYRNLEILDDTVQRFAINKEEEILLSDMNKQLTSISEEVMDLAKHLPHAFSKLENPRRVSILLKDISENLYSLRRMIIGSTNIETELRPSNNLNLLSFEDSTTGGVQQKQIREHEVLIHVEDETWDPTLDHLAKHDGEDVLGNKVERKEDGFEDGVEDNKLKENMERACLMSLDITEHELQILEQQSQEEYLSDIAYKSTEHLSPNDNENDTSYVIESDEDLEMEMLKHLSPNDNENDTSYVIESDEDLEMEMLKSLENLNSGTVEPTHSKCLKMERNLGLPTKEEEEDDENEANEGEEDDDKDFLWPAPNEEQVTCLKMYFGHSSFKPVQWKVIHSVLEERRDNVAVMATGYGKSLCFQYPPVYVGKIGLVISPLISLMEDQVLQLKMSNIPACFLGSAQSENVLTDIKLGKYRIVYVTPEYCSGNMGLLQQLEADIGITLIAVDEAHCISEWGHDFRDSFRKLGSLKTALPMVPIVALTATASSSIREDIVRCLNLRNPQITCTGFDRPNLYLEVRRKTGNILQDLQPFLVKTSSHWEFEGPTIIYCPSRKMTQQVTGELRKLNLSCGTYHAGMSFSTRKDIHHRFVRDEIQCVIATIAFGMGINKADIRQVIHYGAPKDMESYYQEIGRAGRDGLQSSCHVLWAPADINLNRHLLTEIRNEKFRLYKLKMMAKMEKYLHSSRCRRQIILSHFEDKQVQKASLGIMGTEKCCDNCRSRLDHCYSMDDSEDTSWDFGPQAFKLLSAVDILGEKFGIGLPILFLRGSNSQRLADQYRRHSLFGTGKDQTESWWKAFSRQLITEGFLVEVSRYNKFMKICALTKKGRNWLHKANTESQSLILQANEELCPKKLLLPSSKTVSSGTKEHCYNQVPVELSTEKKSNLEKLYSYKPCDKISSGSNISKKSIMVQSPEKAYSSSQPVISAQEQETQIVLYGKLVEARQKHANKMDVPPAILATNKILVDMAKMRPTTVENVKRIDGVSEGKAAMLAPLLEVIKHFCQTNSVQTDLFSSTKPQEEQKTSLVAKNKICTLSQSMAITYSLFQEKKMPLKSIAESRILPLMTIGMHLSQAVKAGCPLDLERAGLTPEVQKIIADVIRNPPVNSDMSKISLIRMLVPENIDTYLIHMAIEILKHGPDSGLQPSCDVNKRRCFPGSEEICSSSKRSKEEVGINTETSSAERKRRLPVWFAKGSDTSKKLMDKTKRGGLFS

Take `C=CC(=O)N1CCc2nn(-c3ccc(C4CCC4)cc3)c3c2C(C1)N(C(=O)c1ccc(C(F)(F)F)c2[nH]nc(N)c12)CC3` (stereo not drawn) [Compound 147, 1-(5-(3-amino-7-(trifluoromethyl)-1H-indazole-4-carbonyl)-2-(4-cyclobutylphenyl)-2,3,4,5,5a,6,8,9-octahydro-7H-1,2,5,7-tetraazabenzo[cd]azulen-7-yl)prop-2-en-1-one]: the AC50 in test [1] (Homo sapiens, HCT-116, 168 h) is 1 to 100 nM; in test [2] it was 0.005 to 0.015 µM; in test [3] (Homo sapiens, HT-29, 168 h), more than 3000 nM.
Taken in the same sequence, the figures for `C=CC(=O)N1CC2c3c(nn(-c4ccc(C5CC5)cc4)c3CCN2C(=O)c2cnc(C(F)(F)F)cc2N)C2(C1)CN(c1nnc(C)s1)C2` (stereo not drawn) [Compound 233, 1-(5′-(4-amino-6-(trifluoromethyl)nicotinoyl)-2′-(4-cyclopropylphenyl)-1-(5-methyl-1,3,4-thiadiazol-2-yl)-2′,3′,4′,5′,5a′,6′-hexahydro-1′,2′,5′,7′-tetraazaspiro[azetidine-3,9′-benzo[cd]azulen]-1′(9a′),2a′-dien-7′(8′H)-yl)prop-2-en-1-one] were 100 to 250 nM, more than 0.055 µM and more than 3000 nM.
On to `C=CC(=O)N1CCc2nn(-c3ccc(C4CCC4)cc3O)c3c2C(C1)N(C(=O)c1cnc(Br)c(OC(F)F)c1)CC3` (stereo not drawn) [Compound 94, 1-(5-(6-bromo-5-(difluoromethoxy)nicotinoyl)-2-(4-cyclobutyl-2-hydroxyphenyl)-2,3,4,5,5a,6,8,9-octahydro-7H-1,2,5,7-tetraazabenzo[cd]azulen-7-yl)prop-2-en-1-one], for which the AC50 in test [1] (Homo sapiens, HCT-116, 168 h) was 1 to 100 nM; in test [2], 0.015 to 0.055 µM; in test [3] (Homo sapiens, HT-29, 168 h), more than 3000 nM.
In the case of `C=CC(=O)N1CCc2nn(-c3ccc(C(C)C)cc3O)c3c2C(C1)N(C(=O)c1ccc(C(F)(F)F)nc1N)CC3` (stereo not drawn) [Compound 173, 1-(5-(2-amino-6-(trifluoromethyl)nicotinoyl)-2-(2-hydroxy-4-isopropylphenyl)-2,3,4,5,5a,6,8,9-octahydro-7H-1,2,5,7-tetraazabenzo[cd]azulen-7-yl)prop-2-en-1-one], the concentration at half-maximal activity (AC50) in test [1] (Homo sapiens, HCT-116, 168 h) was 1 to 100 nM; in test [2], 0.005 to 0.015 µM; in test [3] (Homo sapiens, HT-29, 168 h) it was more than 3000 nM.
Taken in the same sequence, the figures for `C=CC(=O)N1CCc2nn(-c3ccc(C4CC4)cc3O)c3c2C(C1C)N(C(=O)c1cnc(C(F)(F)F)cc1N)CC3` (stereo not drawn) [Compound 221, 1-(5-(4-amino-6-(trifluoromethyl)nicotinoyl)-2-(4-cyclopropyl-2-hydroxyphenyl)-6-methyl-2,3,4,5,5a,6,8,9-octahydro-7H-1,2,5,7-tetraazabenzo[cd]azulen-7-yl)prop-2-en-1-one] were 1 to 100 nM, 0.005 to 0.015 µM and more than 3000 nM.
With `C=CC(=O)N1CCc2nn(C34CC(C5CCCC5)(C3)C4)c3c2C(C1)N(C(=O)c1cnc(C(F)(F)F)cc1N)CC3` (stereo not drawn) [Compound 219, 1-(5-(4-amino-6-(trifluoromethyl)nicotinoyl)-2-(3-cyclopentylbicyclo[1.1.1]pentan-1-yl)-2,3,4,5,5a,6,8,9-octahydro-7H-1,2,5,7-tetraazabenzo[cd]azulen-7-yl)prop-2-en-1-one], the AC50 in test [1] was 1 to 100 nM; in test [2] it was 0.005 to 0.015 µM; in test [3], more than 3000 nM.
With `C=CC(=O)N1CCc2nn(-c3ccc(C4CC4)c(F)c3O)c3c2C(C1)N(C(=O)c1cnc(C(C)(F)F)c(F)c1N)CC3` (stereo not drawn) [Compound 227, 1-(5-(4-amino-6-(1,1-difluoroethyl)-5-fluoronicotinoyl)-2-(4-cyclopropyl-3-fluoro-2-hydroxyphenyl)-2,3,4,5,5a,6,8,9-octahydro-7H-1,2,5,7-tetraazabenzo[cd]azulen-7-yl)prop-2-en-1-one], the AC50 in test [1] (Homo sapiens, HCT-116, 168 h) is 1 to 100 nM; in test [2] it was 0.005 to 0.015 µM; in test [3] (Homo sapiens, HT-29, 168 h), less than 1000 nM.
On to `C=CC(=O)N1CCc2nn(-c3ccc(C4CC4)cc3)c3c2C(C1)N(C(=O)c1cnc(OC(F)F)cc1N)CC3` (stereo not drawn) [Compound 177, 1-(5-(4-amino-6-(difluoromethoxy)nicotinoyl)-2-(4-cyclopropylphenyl)-2,3,4,5,5a,6,8,9-octahydro-7H-1,2,5,7-tetraazabenzo[cd]azulen-7-yl)prop-2-en-1-one], for which the AC50 in test [1] (Homo sapiens, HCT-116, 168 h) is 1 to 100 nM; in test [2] it was 0.005 to 0.015 µM; in test [3] (Homo sapiens, HT-29, 168 h), more than 3000 nM.
`C=CC(=O)N1CCc2nn(-c3ccc(C4CC4)cc3O)c3c2C(C1)N(C(=O)c1cnc(C(F)(F)F)c(O)c1)CC3` (stereo not drawn) [Compound 175, 1-(2-(4-cyclopropyl-2-hydroxyphenyl)-5-(5-hydroxy-6-(trifluoromethyl)nicotinoyl)-2,3,4,5,5a,6,8,9-octahydro-7H-1,2,5,7-tetraazabenzo[cd]azulen-7-yl)prop-2-en-1-one]: the AC50 is 100 to 250 nM in test [1] (Homo sapiens, HCT-116, 168 h); 0.0015 to 0.005 µM in test [2]; more than 3000 nM in test [3] (Homo sapiens, HT-29, 168 h).
For `C=CC(=O)N1CCc2nn(-c3ccc(C4CCC4)cc3C#N)c3c2C(C1)N(C(=O)c1cnc(C(F)(F)F)cc1N)CC3` (stereo not drawn) [Compound 171, 2-(7-acryloyl-5-(4-amino-6-(trifluoromethyl)nicotinoyl)-3,4,5,5a,6,7,8,9-octahydro-2H-1,2,5,7-tetraazabenzo[cd]azulen-2-yl)-5-cyclobutylbenzonitrile] the same measures were 1 to 100 nM, 0.015 to 0.055 µM and more than 3000 nM.
For `C=CC(=O)N1CCc2nn(-c3ccc(SC(F)(F)F)cc3O)c3c2C(C1)N(C(=O)c1cnc(C(F)(F)F)cc1N)CC3` (stereo not drawn) [Compound 226, 1-(5-(4-amino-6-(trifluoromethyl)nicotinoyl)-2-(2-hydroxy-4-((trifluoromethyl)thio)phenyl)-2,3,4,5,5a,6,8,9-octahydro-7H-1,2,5,7-tetraazabenzo[cd]azulen-7-yl)prop-2-en-1-one] the same measures were 1 to 100 nM, 0.005 to 0.015 µM and more than 3000 nM.
As for `C=CC(=O)N1CCc2nn(-c3ccc(C(C)C)cc3)c3c2C(C1C)N(C(=O)c1cnc(C(F)(F)F)cc1N)CC3` (stereo not drawn) [Compound 168, 1-(5-(4-amino-6-(trifluoromethyl)nicotinoyl)-2-(4-isopropylphenyl)-6-methyl-2,3,4,5,5a,6,8,9-octahydro-7H-1,2,5,7-tetraazabenzo[cd]azulen-7-yl)prop-2-en-1-one], the AC50 in test [1] (Homo sapiens, HCT-116, 168 h) is 1 to 100 nM; in test [2] it was 0.005 to 0.015 µM; in test [3] (Homo sapiens, HT-29, 168 h) it was more than 3000 nM.
Regarding `C=CC(=O)N1CCc2nn(-c3ccc(C4CC4)cc3O)c3c2C(C1)N(C(=O)c1cnc(C(F)(F)F)c(C)c1N)CC3` (stereo not drawn) [Compound 208, 1-(5-(4-amino-5-methyl-6-(trifluoromethyl)nicotinoyl)-2-(4-cyclopropyl-2-hydroxyphenyl)-2,3,4,5,5a,6,8,9-octahydro-7H-1,2,5,7-tetraazabenzo[cd]azulen-7-yl)prop-2-en-1-one], the AC50 in test [1] (Homo sapiens, HCT-116, 168 h) is 1 to 100 nM; in test [2], 0.0015 to 0.005 µM; in test [3] (Homo sapiens, HT-29, 168 h), more than 3000 nM.
Take `C=CC(=O)N1CCc2nn(-c3ccc(C4CC4)cc3O)c3c2C(C1)N(C(=O)c1cnc(SC(F)(F)F)c(F)c1N)CC3` (stereo not drawn) [Compound 214, 1-(5-(4-amino-5-fluoro-6-((trifluoromethyl)thio)nicotinoyl)-2-(4-cyclopropyl-2-hydroxyphenyl)-2,3,4,5,5a,6,8,9-octahydro-7H-1,2,5,7-tetraazabenzo[cd]azulen-7-yl)prop-2-en-1-one]: the AC50 in test [1] (Homo sapiens, HCT-116, 168 h) was 1 to 100 nM; in test [2] it was 0.005 to 0.015 µM; in test [3] (Homo sapiens, HT-29, 168 h) it was more than 3000 nM.
In the case of `C=CC(=O)N1CCc2nn(-c3ccc(C4CCC4)cc3)c3c2C(C1)N(C(=O)c1ccc2c(Cl)ncn2c1)CC3` (stereo not drawn) [Compound 236, 1-(5-(1-chloroimidazo[1,5-a]pyridine-6-carbonyl)-2-(4-cyclobutylphenyl)-2,3,4,5,5a,6,8,9-octahydro-7H-1,2,5,7-tetraazabenzo[cd]azulen-7-yl)prop-2-en-1-one], the AC50 is 1 to 100 nM in test [1] (Homo sapiens, HCT-116, 168 h); 0.005 to 0.015 µM in test [2]; more than 3000 nM in test [3] (Homo sapiens, HT-29, 168 h).
In the case of `C=CC(=O)N1CCc2nn(-c3ccc(C4CCC4)cc3O)c3c2C(C1)N(C(=O)c1cnc(OC(F)F)cc1N)CC3` (stereo not drawn) [Compound 164, 1-(5-(4-amino-6-(difluoromethoxy)nicotinoyl)-2-(4-cyclobutyl-2-hydroxyphenyl)-2,3,4,5,5a,6,8,9-octahydro-7H-1,2,5,7-tetraazabenzo[cd]azulen-7-yl)prop-2-en-1-one], the AC50 in test [1] (Homo sapiens, HCT-116, 168 h) is 1 to 100 nM; in test [2], 0.0015 to 0.005 µM; in test [3] (Homo sapiens, HT-29, 168 h) it was more than 3000 nM.
With `C=CC(=O)N1CCc2nn(-c3ccc(C4CC4)c(F)c3O)c3c2C(C1)N(C(=O)c1cnc(Br)c(F)c1N)CC3` (stereo not drawn) [Compound 229, 1-(5-(4-amino-6-bromo-5-fluoronicotinoyl)-2-(4-cyclopropyl-3-fluoro-2-hydroxyphenyl)-2,3,4,5,5a,6,8,9-octahydro-7H-1,2,5,7-tetraazabenzo[cd]azulen-7-yl)prop-2-en-1-one], the figures for the AC50 in test [1], in test [2] and in test [3] were 1 to 100 nM, 0.015 to 0.055 µM and more than 3000 nM, respectively.

Source of the values: patent US20250346600A1, “TRICYCLIC DERIVATIVES AND RELATED USES” (MOMA Therapeutics, Inc., priority 2023, published 2025).
